Assay [1] has as its target T1, Protein cereblon/Serine/threonine-protein kinase PLK1 (Homo sapiens, UniProt P53350+Q96SW2). The assay can be described thus: Protac activity at CRBN/PLK1 in human 22Rv1 cells assessed as PLK1 degradation at 5 to 10 nM measured after 36 hrs by Western blot analysis. The class given is cell-based. Conditions: dose 5-10 nM.
The subject of another assay is K562. The assay can be described thus: Cytotoxicity against human K562 cells assessed as reduction in cell viability measured after 3 days by CCK-8 assay. Type of assay: functional, cell-based. Conditions: K562, 72 h. A general note: Tetrazolium dyes change colour on reduction, which living cells bring about.
Assay [2] has as its system HeLa. The assay can be described thus: Cytotoxicity against human HeLa cells assessed as reduction in cell viability measured after 3 days by CCK-8 assay. The class given is functional, cell-based. The settings on record: 72 h.
The next assay concerns MDA-MB-231. The assay can be described thus: Cytotoxicity against human MDA-MB-231 cells assessed as reduction in cell viability measured after 3 days by CCK-8 assay. The class given is functional, cell-based. The settings on record: MDA-MB-231, 72 h.
The next assay has as its system CWR22R. Briefly: Cytotoxicity against human 22Rv1 cells assessed as reduction in cell viability measured after 3 days by CCK-8 assay. The class given is functional, cell-based. Conditions: 22Rv1, 72 h.
The target of assay [3] is von Hippel-Lindau disease tumor suppressor/Serine/threonine-protein kinase PLK1 (Homo sapiens) (UniProt P53350+P40337). The assay can be described thus: Protac activity at VHL/PLK1 in human HeLa cells assessed as PLK1 degradation at 500 nM measured after 12 hrs by Western blot analysis. Type of assay: cell-based. Background: In western blotting, separated proteins are transferred to a membrane and probed.

In assay [4] the target is von Hippel-Lindau disease tumor suppressor/Bromodomain-containing protein 4 (Homo sapiens) (UniProt O60885+P40337). The assay can be described thus: Protac activity at VHL/BRD4 in human HeLa cells assessed as BRD4 degradation at 500 nM measured after 12 hrs by Western blot analysis. The class given is cell-based.
Assay [5] addresses T2, Protein cereblon/Bromodomain-containing protein 4 (Homo sapiens, UniProt O60885+Q96SW2). The assay can be described thus: Protac activity at CRBN/BRD4 in human HeLa cells assessed as BRD4 degradation at 500 nM measured after 12 hrs by Western blot analysis. The class given is cell-based.
Assay [6] addresses T1, Protein cereblon/Serine/threonine-protein kinase PLK1. Briefly: Protac activity at CRBN/PLK1 in human HeLa cells assessed as PLK1 degradation at 500 nM measured after 12 hrs by Western blot analysis. Type of assay: cell-based.
In assay [7] the target is T2, Protein cereblon/Bromodomain-containing protein 4. Briefly: Protac activity at CRBN/BRD4 in human HeLa cells assessed as BRD4 degradation at 20 nM measured after 24 hrs by Western blot analysis. Type of assay: cell-based.
The target of assay [8] is T1, Protein cereblon/Serine/threonine-protein kinase PLK1. The assay can be described thus: Protac activity at CRBN/PLK1 in human 22Rv1 cells assessed as PLK1 degradation at 10 nM measured after 36 hrs by Western blot analysis. Type of assay: cell-based.
The test system of assay [9] is HeLa. Briefly: Induction of degradation of PLK1 in human HeLa cells at 500 nM measured after 12 hrs by Western blot analysis. Type of assay: cell-based.
Assay [10] has as its system HeLa. The assay can be described thus: Induction of degradation of BRD4 in human HeLa cells at 500 nM measured after 12 hrs by Western blot analysis. The class given is cell-based.

Structures are written as SMILES. Active and inactive are the calls of the source. The calls are words filed in the database; no cut-off is given here. Some results are limits rather than exact numbers.

Chain of von Hippel-Lindau disease tumor suppressor/Serine/threonine-protein kinase PLK1 (Homo sapiens) (P40337 whole entry, looked up): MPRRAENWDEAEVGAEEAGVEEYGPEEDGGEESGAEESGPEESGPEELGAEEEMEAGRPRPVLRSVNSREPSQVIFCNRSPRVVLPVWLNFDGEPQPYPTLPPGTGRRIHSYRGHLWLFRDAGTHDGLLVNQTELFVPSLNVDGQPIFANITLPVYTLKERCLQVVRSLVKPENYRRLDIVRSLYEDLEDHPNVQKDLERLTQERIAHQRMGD
Chain of von Hippel-Lindau disease tumor suppressor/Serine/threonine-protein kinase PLK1 (Homo sapiens) (P53350 whole entry, looked up): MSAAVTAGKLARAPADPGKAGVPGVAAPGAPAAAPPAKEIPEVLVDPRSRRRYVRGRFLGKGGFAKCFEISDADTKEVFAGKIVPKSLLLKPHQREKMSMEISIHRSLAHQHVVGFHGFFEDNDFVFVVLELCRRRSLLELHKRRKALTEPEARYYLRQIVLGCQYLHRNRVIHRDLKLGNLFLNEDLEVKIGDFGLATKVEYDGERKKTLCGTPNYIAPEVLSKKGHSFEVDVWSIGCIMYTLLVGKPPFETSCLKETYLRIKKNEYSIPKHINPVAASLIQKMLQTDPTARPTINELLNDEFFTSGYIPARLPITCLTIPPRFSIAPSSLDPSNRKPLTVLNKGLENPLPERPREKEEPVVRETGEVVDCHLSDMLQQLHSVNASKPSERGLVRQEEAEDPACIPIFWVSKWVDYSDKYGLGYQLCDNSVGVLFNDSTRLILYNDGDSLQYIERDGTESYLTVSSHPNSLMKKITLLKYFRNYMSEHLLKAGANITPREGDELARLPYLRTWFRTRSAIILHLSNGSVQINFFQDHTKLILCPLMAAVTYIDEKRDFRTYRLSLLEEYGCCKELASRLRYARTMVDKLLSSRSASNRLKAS
Chain of von Hippel-Lindau disease tumor suppressor/Bromodomain-containing protein 4 (Homo sapiens) (P40337 whole entry, looked up, other chains not shown): as the sequence (P40337 whole entry, looked up) above
T2 sequence (Q96SW2 whole entry, looked up, other chains not shown): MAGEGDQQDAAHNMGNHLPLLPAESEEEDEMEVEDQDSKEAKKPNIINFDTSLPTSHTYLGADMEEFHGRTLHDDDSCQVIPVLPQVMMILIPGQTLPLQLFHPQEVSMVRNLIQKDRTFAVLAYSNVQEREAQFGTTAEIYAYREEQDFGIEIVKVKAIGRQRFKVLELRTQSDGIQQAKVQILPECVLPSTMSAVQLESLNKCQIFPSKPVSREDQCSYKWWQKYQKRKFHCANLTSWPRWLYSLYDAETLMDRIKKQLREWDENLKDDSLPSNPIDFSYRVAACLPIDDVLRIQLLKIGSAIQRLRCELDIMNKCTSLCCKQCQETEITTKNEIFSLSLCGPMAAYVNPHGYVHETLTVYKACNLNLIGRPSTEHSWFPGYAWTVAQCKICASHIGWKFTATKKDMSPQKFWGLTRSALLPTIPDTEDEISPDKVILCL
T1 sequence (P53350 2-603 limits assumed): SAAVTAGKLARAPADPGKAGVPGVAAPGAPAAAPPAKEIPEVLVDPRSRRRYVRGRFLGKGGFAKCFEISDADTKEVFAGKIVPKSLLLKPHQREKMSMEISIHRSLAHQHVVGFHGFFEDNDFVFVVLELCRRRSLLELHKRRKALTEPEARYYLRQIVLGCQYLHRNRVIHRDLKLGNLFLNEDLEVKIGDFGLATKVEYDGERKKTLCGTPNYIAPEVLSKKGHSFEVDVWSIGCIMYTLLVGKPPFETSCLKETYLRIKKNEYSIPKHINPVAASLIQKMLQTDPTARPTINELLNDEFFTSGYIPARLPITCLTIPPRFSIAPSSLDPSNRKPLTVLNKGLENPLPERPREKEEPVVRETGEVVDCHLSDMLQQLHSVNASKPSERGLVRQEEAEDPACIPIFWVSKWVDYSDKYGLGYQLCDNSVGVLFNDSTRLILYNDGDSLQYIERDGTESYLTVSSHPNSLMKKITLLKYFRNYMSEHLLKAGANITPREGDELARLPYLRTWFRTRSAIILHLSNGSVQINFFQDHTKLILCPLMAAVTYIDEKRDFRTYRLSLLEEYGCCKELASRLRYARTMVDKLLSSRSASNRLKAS
T1 sequence (Q96SW2 whole entry partner): as the sequence (Q96SW2 whole entry, looked up, other chains not shown) above

With `Cc1ncsc1-c1ccc([C@H](C)NC(=O)[C@@H]2C[C@@H](O)CN2C(=O)[C@@H](NC(=O)COCCCOCCNC(=O)C[C@@H]2N=C(c3ccc(Cl)cc3)c3c(sc(C)c3C)-n3c(C)nnc32)C(C)(C)C)cc1`, the outcome in assay [1] was inactive.
Broadly, the IC50 is the point on the concentration scale where inhibition reaches its midpoint. As to `CC[C@@H]1C(=O)N(C)c2cnc(Nc3ccc(C(=O)NC4CCN(CCCCCCC(=O)N[C@H](C(=O)N5C[C@H](O)C[C@H]5C(=O)NCc5ccc(-c6scnc6C)cc5)C(C)(C)C)CC4)cc3OC)nc2N1C1CCCC1`, the IC50 is over 1000 nM in the assay with K562, 193 nM in the assay with HeLa [2], over 1000 nM in the assay with MDA-MB-231 and over 1000 nM in the assay with CWR22R. The Activity in [3] turned out to be 0%; in assay [4], 10%.
Regarding `CC[C@@H]1C(=O)N(C)c2cnc(Nc3ccc(C(=O)NC4CCN(CCCCCC(=O)N[C@H](C(=O)N5C[C@H](O)C[C@H]5C(=O)NCc5ccc(-c6scnc6C)cc5)C(C)(C)C)CC4)cc3OC)nc2N1C1CCCC1`, the IC50 in the assay with K562 is over 1000 nM; in the assay on HeLa [2], 398 nM; with MDA-MB-231, over 1000 nM; in the assay on CWR22R, over 1000 nM. In addition, the Activity was found to be 0.3% in [3] and 7% in assay [4].
Take `CC[C@@H]1C(=O)N(C)c2cnc(Nc3ccc(C(=O)NC4CCN(CCCCCCCCCC(=O)N[C@H](C(=O)N5C[C@H](O)C[C@H]5C(=O)NCc5ccc(-c6scnc6C)cc5)C(C)(C)C)CC4)cc3OC)nc2N1C1CCCC1`: the IC50 in the assay on K562 turned out to be 66 nM; with HeLa [2], 52 nM; in the assay with MDA-MB-231, 928 nM; with CWR22R, 225 nM. Besides, the Activity was 8% in [3] and 50% in [4].
As to `CC[C@@H]1C(=O)N(C)c2cnc(Nc3ccc(C(=O)NC4CCN(CCCCCCC(=O)Nc5cccc6c5C(=O)N(C5CCC(=O)NC5=O)C6=O)CC4)cc3OC)nc2N1C1CCCC1` (some centres not stated), the Activity came to 94% in assay [5] and 18% in assay [6]. The IC50 in the assay with K562 came out at 89 nM; in the assay with HeLa [2], 54 nM; with MDA-MB-231, 489 nM; in the assay with CWR22R, 48 nM. Besides, the result in [7] was Active.
Turning to `Cc1ncsc1-c1ccc(CNC(=O)[C@@H]2C[C@@H](O)CN2C(=O)[C@@H](NC(=O)CCCCCCCCCCNC(=O)c2cc3c(cc2CS(C)(=O)=O)-c2cn(C)c(=O)c4[nH]cc(c24)CN3c2ncc(F)cc2F)C(C)(C)C)cc1`, the result in [8] was inactive.
For the compound `CC[C@@H]1C(=O)N(C)c2cnc(Nc3ccc(C(=O)NC4CCN(CCCCCCCC(=O)N[C@H](C(=O)N5C[C@H](O)C[C@H]5C(=O)NCc5ccc(-c6scnc6C)cc5)C(C)(C)C)CC4)cc3OC)nc2N1C1CCCC1`, the IC50 is 527 nM in the assay with K562, 158 nM with HeLa [2], over 1000 nM in the assay on MDA-MB-231 and over 1000 nM in the assay with CWR22R. Moreover, the Activity in assay [3] amounted to 6%; in [4] it was 22%.
On to `CC[C@@H]1C(=O)N(C)c2cnc(Nc3ccc(C(=O)NC4CCN(C)CC4)cc3OC)nc2N1C1CCCC1`, for which the Activity with HeLa [9] and in the assay on HeLa [10] was 0% each time.
For `CC[C@@H]1C(=O)N(C)c2cnc(Nc3ccc(C(=O)NC4CCN(CCCCCCCCCC(=O)Nc5cccc6c5C(=O)N(C5CCC(=O)NC5=O)C6=O)CC4)cc3OC)nc2N1C1CCCC1` (some centres not stated), the Activity was 93% in [5] and 7% in assay [6]. Moreover, the IC50 in the assay on K562 was 133 nM; in the assay on HeLa [2], 125 nM; in the assay with MDA-MB-231, 527 nM; in the assay with CWR22R it was 63 nM. In addition, in [7], the outcome was Active.

The record behind these values is ChEMBL document CHEMBL6114972, “Proteolysis targeting chimera of BI-2536 induces potent dual degradation of PLK1 and BET proteins” (Bioorg Med Chem, 2025).
